According to ChEMBL document CHEMBL3832555, “DailyMed|setid=f0492050-a966-41be-80b5-a58da7ba2bcf | PERINDOPRIL ERBUMINE-perindopril erbumine tablet|Lannett Company, Inc”:

Test system: Homo sapiens
Assay: Evaluation of pharmacokinetic parameters for PERINDOPRIL and its active metabolite, PERINDOPRILAT,following single oral administration of PERINDOPRIL ERBUMINE tablets
Assay type: ADME, organism-based
Details: in vivo, dosed compound id 11, dosed compound name PERINDOPRIL ERBUMINE, tissue Plasma

| SMILES | F | Protein binding | Tmax | t1/2-elimination | t1/2 |
| --- | --- | --- | --- | --- | --- |
| CC(C)(C)N.CCC[C@H](N[C@@H](C)C(=O)N1[C@H](C(=O)O)C[C@@H]2CCCC[C@@H]21)C(=O)OCC [PERINDOPRIL ERBUMINE] | 75% | 60% | 1 h | 0.8 to 1 h |  |
| CCC[C@H](N[C@@H](C)C(=O)N1[C@H](C(=O)O)C[C@@H]2CCCC[C@@H]21)C(=O)O [PERINDOPRILAT] | 25% | 10 to 20% | 3 to 7 h | 30 to 120 h | 3 to 10 h |
